Data set [1] in a line: Washtest and sensory evaluation of fabric washed with liquid detergent. To be noted: liquid detergent washtest; for odor on dry fabric / odor intensity, 1 day / odor intensity, 4 days / odor intensity, wet: Table 3; for odor intensity, 1 day / odour intensity, 1 day: dry fabric 1 day; for odor intensity, 1 day / odor intensity, 4 days / odour intensity, 1 day / odour intensity, 4 days: scale 0 to 5; for odor intensity, 4 days / odour intensity, 4 days: dry fabric 4 days; for odor intensity, wet / odour intensity, wet: wet fabric, scale 0 (odorless) to 5 (extremely strong); for odour intensity, wet: Table 2 (position of double bond); for odour intensity, 1 day / odour intensity, 4 days: Table 2. Here is the method:
The wet and line-dried fabric (1 and 4 days) was assessed by a panel of 4-6 experts with regard to odor intensity and quality. The odor intensity was recorded on an intensity scale of 0 (odorless) to 5 (extremely strong).
The odour intensity was recorded on an intensity scale of 0 (odorless) to 5 (extremely strong).
Liquid detergent samples were prepared and used in washtests and subsequent sensory evaluation of the washed and dried fabric as described in Example 45a and c. The odor intensity was recorded on an intensity scale of 0 (odorless) to 5 (extremely strong).

A short description of data set [2]: Odor description on paper blotter. The following applies: 1% solution in EtOH on paper blotter, 24 h.
Data set [3] can be described thus: Biodegradability, manometric respirometry test (OECD 301F). More on the design: key to result (biodegradable class; cell wraps to 'biodegradable'): A compound is readily biodegradable, if the pass level is reached within 10 days within the 28-day period of the test; If the pass level is obtained after 28-day period of the test, the compound can be classified as inherently biodegradable. The following applies: for result (biodegradable class; cell wraps to 'biodegradable'): 28-day test, 10-day window; for Biodegradation in %: pass level 60% oxygen consumption of theory. The source says: The results of the biodegradability assessment by the manometric respirometry test (OECD guideline for the testing of materials No. 301F, Paris 1992) are summarized in Table 5.
A compound can be classified biodegradable, if it reaches the pass level of 60% oxygen consumption of theory required for complete mineralization.
A compound is readily biodegradable, if the pass level is reached within 10 days within the 28-day period of the test. The 10-day window begins when the degree of biodegradation has reached 10%. If the pass level is obtained after 28-day period of the test, the compound can be classified as inherently biodegradable.

Entries after “also recorded” stand apart in the source; their conditions may differ.

Consider `CC/C=C\CCOc1cc(C)c(C(=O)OC)c(O)c1C` [Example 9, methyl (Z)-4-(hex-3-en-1-yloxy)-2-hydroxy-3,6-dimethylbenzoate], for which, in data set [1], the “odor on dry fabric” value is recorded as “oakmoss”; the “odor intensity, 1 day” value is listed as 1.7; the “odor intensity, 4 days” value amounted to 3.3; the “odor intensity, wet” value came out at 1.0. Besides, in data set [2], the Odor description result is listed as “powdery mossy (Evernyl)”.

`CCC/C=C/COc1ccc(C=O)cc1OCC` [Example 54, (E)-3-ethoxy-4-(hex-2-en-1-yloxy)benzaldehyde, reference compound]: in data set [1], the “odour intensity, wet” value worked out at 1.2; the “odour intensity, 1 day” value was determined as 1.8; the “odour intensity, 4 days” value was 1.4. The corresponding values for `C=CCCCOc1ccc(C=O)cc1OCC` [Example 53, 3-ethoxy-4-(pent-4-en-1-yloxy)benzaldehyde, reference compound] are 1.5, 1.3 and 1.2.

Consider `CCOc1cc(C=O)ccc1OC1CC=CC1` [Example 20, 4-(cyclopent-3-en-1-yloxy)-3-ethoxybenzaldehyde], for which, in data set [3], the “result (biodegradable class; cell wraps to 'biodegradable')” value (shortened to “result”) is on record as “inherently” and the Biodegradation in % was found to be 74%. Further, in data set [1], the “odor on dry fabric” value is “vanilla, powdery”; the “odor intensity, 1 day” value is on record as 3.0; the “odor intensity, 4 days” value was determined as 3.7. Besides, the Odor description entry in data set [2] is “vanilla (powdery, spicy, creamy)”. With `CC(=O)CCc1ccc(OCCC=C(C)C)cc1` [Example 18, 4-(4-((4-methylpent-3-en-1-yl)oxy)phenyl)butan-2-one], in data set [3], the “result” value was “readily” and the Biodegradation in % is listed as 91%. Further, in data set [2], the Odor description result was “sweet fruity (raspberry ketone)”.

Consider `CCCC(C)=CCCOc1ccc(C=O)cc1OC` [Example 38, 3-methoxy-4-((4-methylhept-3-en-1-yl)oxy)benzaldehyde], for which the Odor description entry in data set [2] is “powdery, vanilla, chocolate”. With `C/C=C/c1ccc(OCC/C=C\CC)c(OC)c1` [Example 11, 1-(((Z)-hex-3-en-1-yl)oxy)-2-methoxy-4-((E)-prop-1-en-1-yl)benzene], in data set [1], the “odor on dry fabric” value was “spicy, vanilla”; the “odor intensity, 1 day” value is 1.9; the “odor intensity, 4 days” value was 3.0; the “odor intensity, wet” value is given as 2.0. Besides, the Odor description result in data set [2] was “slightly spicy woody”. Regarding `C=CCc1ccc(OCC/C=C\CC)c(OC)c1` [Example 10, (Z)-4-allyl-1-(hex-3-en-1-yloxy)-2-methoxybenzene], in data set [1], the “odor on dry fabric” value is reported as “spicy, clove,; also recorded: gingerbread”; the “odor intensity, 1 day” value was found to be 2.4; the “odor intensity, 4 days” value is 2.5; the “odor intensity, wet” value came out at 1.6. The Odor description entry in data set [2] is listed as “slightly spicy”.

In the case of `C=CCC(CC)Oc1ccc(CCC(C)=O)cc1` (centres unmarked) [Example 25, 4-(4-(hex-5-en-3-yloxy)phenyl)butan-2-one], in data set [2], the Odor description result is “sweet (icing sugar cristal) raspberry”.

As to `CC/C=C/CCOc1ccc(CCC(C)=O)cc1` [Example 7, (E)-4-(4-(hex-3-en-1-yloxy)phenyl)butan-2-one], the Odor description result in data set [2] is “raspberry”. Same read-out and setting: as for `C=CCCOc1ccc(CC=C)cc1OC` [Example 13, 4-allyl-1-(but-3-en-1-yloxy)-2-methoxybenzene], the entry is “slightly spicy (iso eugenol) fruity (berry)”; as for `CCOc1cc(C=O)ccc1OCCC=CCCOc1ccc(C=O)cc1OCC` [Example 52, 4,4′-(hex-3-ene-1,6-diylbis(oxy))bis(3-ethoxybenzaldehyde)], “powdery (vanilla)”; as for `C=CCC(C=C(C)C)Oc1ccc(CCC(C)=O)cc1` (centres unmarked) [Example 27, 4-(4-((6-methylhepta-1,5-dien-4-yl)oxy)phenyl)butan-2-one], “fruity (powdery, sweet, raspberry)”.

For the molecule `CCOc1cc(C=O)ccc1OCCC=C(C)CC` [Example 40, 3-ethoxy-4-((4-methylhex-3-en-1-yl)oxy)benzaldehyde], in data set [2], the Odor description entry was “powdery, vanilla, creamy, chocolate, slightly butyric”. Consider `CCOc1cc(C=O)ccc1OCCC=CC(=O)OC` [Example 60, methyl 5-(2-ethoxy-4-formylphenoxy)pent-2-enoate], for which the Odor description result in data set [2] is recorded as “sweet powdery gourmand, vanilla, coffee, creamy, vanilla, milky”. As to `CCCC/C=C\CCOc1ccc(C=O)cc1OCC` [Example 17, (Z)-3-ethoxy-4-(oct-3-en-1-yloxy)benzaldehyde], the Odor description result in data set [2] is listed as “vanilla (powdery, spicy, creamy)”. Still for that read-out and setting: for “3-ethoxy-4-((4-methylhepta-3,6-dien-1-yl)oxy)benzaldehyde and 3-ethoxy-4-((4-methylhepta-3,5-dien-1-yl)oxy)benzaldehyde [Example 29]” the value was “powdery (vanilla) sweet (sugary)”. On the same count and under the same terms, as for `CC/C=C\CCOc1ccc(COC(C)C)cc1OCC` [Example 50, (Z)-2-ethoxy-1-(hex-3-en-1-yloxy)-4-(isopropoxymethyl)benzene], the entry is “spicy (eugenol, smokey), powdery (vanilla), green”; as for `C=CCC(C=C(C)C)Oc1ccc(C=O)cc1OCC` (centres unmarked) [Example 24, 3-ethoxy-4-((6-methylhepta-1,5-dien-4-yl)oxy)benzaldehyde], “powdery (creamy, vanilla)”; as for `C=CCC(CCC)Oc1ccc(C=O)cc1OCC` (centres unmarked) [Example 19, 3-ethoxy-4-(hept-1-en-4-yloxy)benzaldehyde], “powdery (dry, vanilla) fruity (metallic)”. In the case of `C=C(C)CCOc1ccc(C=O)cc1OCC` [Example 15, 3-ethoxy-4-((3-methylbut-3-en-1-yl)oxy)benzaldehyde], the Odor description entry in data set [2] was “mild, powdery, spicy”. For the molecule `CC/C=C\CCOc1ccc(C=O)cc1OC` [Example 8, (Z)-4-(hex-3-en-1-yloxy)-3-methoxybenzaldehyde], in data set [3], the “result” value is “readily” and the Biodegradation in % stood at 92%. Besides, the Odor description result in data set [2] is given as “powdery (vanilla) slightly green”. As for `CCOc1cc(C=O)ccc1OC1CC=CCC1` (centres unmarked) [Example 51, 4-(cyclohex-3-en-1-yloxy)-3-ethoxybenzaldehyde], in data set [2], the Odor description result is listed as “powdery (vanilla)”.

With `CC/C=C\CC(C)Oc1ccc(C=O)cc1OCC` (centres unmarked) [Example 4, (Z)-3-ethoxy-4-(hept-4-en-2-yloxy)benzaldehyde], the Odor description result in data set [2] is on record as “sweet (brown sugar) powdery (vanillin, chocolate, ice cream)”. In the case of `CCCc1cccc(OCCC=C(C)C)c1` [Example 45, 1-((4-methylpent-3-en-1-yl)oxy)-3-propylbenzene], the Odor description entry in data set [2] is on record as “animalic, leathery, phenolic, paracresol, green, hay, rooty”. For the molecule `C=CCC(CCC)Oc1ccc(CCC(C)=O)cc1` (centres unmarked) [Example 21, 4-(4-(hept-1-en-4-yloxy)phenyl)butan-2-one], in data set [2], the Odor description result is recorded as “raspberry”. The same measure, in the same setting: as for `C=CCC(CC=C)Oc1ccc(CCC(C)=O)cc1` [Example 23, 4-(4-(hepta-1,6-dien-4-yloxy)phenyl)butan-2-one], the entry is “fruity (raspberry)”; as for `COc1cc(C)cc(OCCC=C(C)C)c1` [Example 43, 1-methoxy-3-methyl-5-((4-methylpent-3-en-1-yl)oxy)benzene], “animalic, leathery, phenolic, paracresol, green, hay, rooty”. Still for that read-out and setting: for `CCOc1cc(C=O)ccc1OCC/C=C/C(C)C` [Example 32, (E)-3-ethoxy-4-((5-methylhex-3-en-1-yl)oxy)benzaldehyde] the value was “powdery, vanilla, green, hazelnut, chocolate”; for `C=CCCOc1ccc(C=O)cc1OCC` [Example 12, 4-(but-3-en-1-yloxy)-3-ethoxybenzaldehyde], “powdery (vanilla, creamy, dough)”.

`C=CCC(C=CC)Oc1ccc(CCC(C)=O)cc1` (centres unmarked) [Example 26, 4-(4-(hepta-1,5-dien-4-yloxy)phenyl)butan-2-one]: the Odor description result in data set [2] was “sweet (icing sugar cristal) raspberry”. As to `CC/C=C\CCOc1ccc(COCC)cc1OCC` [Example 48, (Z)-2-ethoxy-4-(ethoxymethyl)-1-(hex-3-en-1-yloxy)benzene], the Odor description entry in data set [2] is listed as “spicy (eugenol, smokey), powdery (vanilla)”. On the same count and under the same terms, as for `CCC(C)=CCCOc1ccc(CCC(C)=O)cc1` [Example 36, 4-(4-((4-methylhex-3-en-1-yl)oxy)phenyl)butan-2-one], the entry is “fruity, raspberry, sweet, powdery”; as for `CC/C=C\CCOc1ccc(COC)cc1OCC` [Example 49, (Z)-2-ethoxy-1-(hex-3-en-1-yloxy)-4-(methoxymethyl)benzene], “spicy (eugenol, smokey), powdery (vanilla)”.

Values taken from patent US20250243427A1, “PRECURSORS OF PHENOLIC FRAGRANT COMPOUNDS” (GIVAUDAN SA, priority 2021, published 2025).
